# Literature values in patent US20220023238A1, “Process of Manufacturing a Stable, Ready to Use Infusion Bag for an Oxidation Sensitive Formulation” (InnoPharma, Inc., priority 2016, published 2022).
# How the values were obtained:
# [1] = intravenous, therapeutic dosing up to 4,000 mg daily
# [2] = six adult volunteers, intravenous vs oral
compound,measurement,setting,value
"CC(=O)Nc1ccc(O)cc1 [acetaminophen, N-(4-hydroxy-phenyl)acetamide]",hepatotoxicity,[1],rarely associated with hepatotoxicity
same,mean intravenous Cmax compared to oral route,[2],two
